What all share (format): functional
In test [1] the test system is Acinetobacter baumannii. The experiment in a line: Antibacterial activity against Carbapenem-resistant Acinetobacter baumannii FADD1-AB030 clinical isolates assessed as reduction in bacterial growth by broth microdilution method. On the technique in general: Dilution methods test growth across graded concentrations, often in twofold steps.
Test [2] deals with Klebsiella pneumoniae. Description: Antibacterial activity against Carbapenem-resistant Klebsiella pneumoniae FADD1-KP032 clinical isolates assessed as reduction in bacterial growth by broth microdilution method.
In test [3] the test system is Klebsiella pneumoniae. Description: Antibacterial activity against Carbapenem-resistant Klebsiella pneumoniae BM1 clinical isolates assessed as reduction in bacterial growth by broth microdilution method.
For test [4], the system named is Acinetobacter baumannii. Description: Antibacterial activity against Carbapenem-resistant Acinetobacter baumannii FADD1-AB034 clinical isolates assessed as reduction in bacterial growth by broth microdilution method.
The subject of test [5] is Enterobacter cloacae. The experiment in a line: Antibacterial activity against polymyxin-susceptible Enterobacter cloacae FADD1-EC003 clinical isolates assessed as reduction in bacterial growth by broth microdilution method.
The subject of test [6] is Pseudomonas aeruginosa. The experiment in a line: Antibacterial activity against polymyxin-susceptible Pseudomonas aeruginosa FADD1-PA038 clinical isolates assessed as reduction in bacterial growth by broth microdilution method.
Test [7] relates to Klebsiella pneumoniae. The experiment in a line: Antibacterial activity against Carbapenem-resistant Klebsiella pneumoniae FADD1-KP022 clinical isolates assessed as reduction in bacterial growth by broth microdilution method.
The subject of test [8] is Enterobacter cloacae. The experiment in a line: Antibacterial activity against polymyxin-susceptible Enterobacter cloacae FADD1-EC001 clinical isolates assessed as reduction in bacterial growth by broth microdilution method.
Test [9] concerns Acinetobacter baumannii. The experiment in a line: Antibacterial activity against polymyxin-susceptible Acinetobacter baumannii ATCC 19606 clinical isolates assessed as reduction in bacterial growth by broth microdilution method.
Test [10] has as its system Pseudomonas aeruginosa. The experiment in a line: Antibacterial activity against Carbapenem-resistant Pseudomonas aeruginosa FADD1-PA001 clinical isolates assessed as reduction in bacterial growth by broth microdilution method.
The test system of test [11] is Enterobacter cloacae. Description: Antibacterial activity against polymyxin-susceptible Enterobacter cloacae FADD1-EC006 clinical isolates assessed as reduction in bacterial growth by broth microdilution method.
Test [12] has as its system Pseudomonas aeruginosa. Description: Antibacterial activity against polymyxin-susceptible Pseudomonas aeruginosa ATCC 27853 clinical isolates assessed as reduction in bacterial growth by broth microdilution method.
The subject of test [13] is Klebsiella pneumoniae. The experiment in a line: Antibacterial activity against polymyxin-susceptible Klebsiella pneumoniae ATCC 700721 clinical isolates assessed as reduction in bacterial growth by broth microdilution method.
Test [14] deals with Klebsiella pneumoniae. Description: Antibacterial activity against Carbapenem-resistant Klebsiella pneumoniae FADD1-KP065 clinical isolates assessed as reduction in bacterial growth by broth microdilution method.
In test [15] the test system is Pseudomonas aeruginosa. Description: Antibacterial activity against polymyxin-susceptible Pseudomonas aeruginosa FADD1-PA025 clinical isolates assessed as reduction in bacterial growth by broth microdilution method.
The test system of test [16] is Acinetobacter baumannii. The experiment in a line: Antibacterial activity against polymyxin-susceptible Acinetobacter baumannii ATCC 17978 clinical isolates assessed as reduction in bacterial growth by broth microdilution method.
Test [17] concerns Pseudomonas aeruginosa. The experiment in a line: Antibacterial activity against Carbapenem-resistant Pseudomonas aeruginosa FADD1-PA022 clinical isolates assessed as reduction in bacterial growth by broth microdilution method.

Converted amounts (≈) assume the structure as drawn.

What is called MIC is the least concentration at which growth counts as inhibited. Regarding `CC[C@H](C)CCCCC(=O)N[C@@H](CCN)C(=O)N[C@H](C(=O)N[C@@H](CCN)C(=O)N[C@H]1CCNC(=O)[C@H](Cc2c[nH]c3ccccc23)NC(=O)[C@H](CCN)NC(=O)[C@H](CCN)NC(=O)[C@H](CC(C)C)NC(=O)[C@@H](Cc2ccccc2)NC(=O)[C@H](CCN)NC1=O)[C@@H](C)O`, the MIC in test [1] is 2 mg/L (≈ 1.55 µM); in [2], 4 mg/L (≈ 3.1 µM); in test [3], 4 mg/L (≈ 3.1 µM); in test [4] it was 4 mg/L (≈ 3.1 µM); in [5], 8 mg/L (≈ 6.21 µM); in test [6], 4 mg/L (≈ 3.1 µM). The minimum inhibitory concentration (MIC) in test [7] was 1 mg/L (≈ 0.776 µM); in test [8], 8 mg/L (≈ 6.21 µM); in [9], 2 mg/L (≈ 1.55 µM); in test [10] it was 4 mg/L (≈ 3.1 µM); in test [11], 4 mg/L (≈ 3.1 µM); in [12] it was 2 mg/L (≈ 1.55 µM). The MIC in [13] came to 8 mg/L (≈ 6.21 µM); in test [14] it was 2 mg/L (≈ 1.55 µM); in test [15], 2 mg/L (≈ 1.55 µM); in [16] it was 4 mg/L (≈ 3.1 µM); in test [17], 2 mg/L (≈ 1.55 µM).
As to `CC[C@H](C)CCCCC(=O)N[C@@H](CCN)C(=O)N[C@H](C(=O)N[C@@H](CCN)C(=O)N[C@H]1CCNC(=O)[C@H](C(C)C)NC(=O)[C@H](CCN)NC(=O)[C@H](CCN)NC(=O)[C@H](CC(C)C)NC(=O)[C@@H](Cc2ccccc2)NC(=O)[C@H](CCN)NC1=O)[C@@H](C)O`, the MIC in test [1] was 2 mg/L (≈ 1.66 µM); in test [2], 1 mg/L (≈ 0.832 µM); in test [3], 1 mg/L (≈ 0.832 µM); in test [4] it was 4 mg/L (≈ 3.33 µM); in test [5], 2 mg/L (≈ 1.66 µM); in test [6] it was 2 mg/L (≈ 1.66 µM). Also, the MIC in test [7] came to 0.25 mg/L (≈ 0.208 µM); in [8] it was 4 mg/L (≈ 3.33 µM); in test [9], 4 mg/L (≈ 3.33 µM); in test [10], 1 mg/L (≈ 0.832 µM); in [11] it was 16 mg/L (≈ 13.3 µM); in [12], 1 mg/L (≈ 0.832 µM). Moreover, the MIC was found to be 8 mg/L (≈ 6.66 µM) in test [13]; 1 mg/L (≈ 0.832 µM) in [14]; 1 mg/L (≈ 0.832 µM) in test [15]; 4 mg/L (≈ 3.33 µM) in test [16]; 1 mg/L (≈ 0.832 µM) in test [17].
Take `CC[C@H](C)CCCCC(=O)N[C@@H](CCN)C(=O)N[C@H](C(=O)N[C@@H](CCN)C(=O)N[C@H]1CCNC(=O)[C@H](C(C)(C)C)NC(=O)[C@H](CCN)NC(=O)[C@H](CCN)NC(=O)[C@H](CC(C)C)NC(=O)[C@@H](Cc2ccccc2)NC(=O)[C@H](CCN)NC1=O)[C@@H](C)O`: the MIC in test [1] is 4 mg/L (≈ 3.29 µM); in test [2], 2 mg/L (≈ 1.65 µM); in test [3], 8 mg/L (≈ 6.58 µM); in [4], 4 mg/L (≈ 3.29 µM); in [5], 4 mg/L (≈ 3.29 µM); in [6] it was 4 mg/L (≈ 3.29 µM). Also, the MIC was found to be 1 mg/L (≈ 0.823 µM) in test [7]; 8 mg/L (≈ 6.58 µM) in [8]; 8 mg/L (≈ 6.58 µM) in [9]; 2 mg/L (≈ 1.65 µM) in test [10]; 8 mg/L (≈ 6.58 µM) in [11]; 2 mg/L (≈ 1.65 µM) in test [12]. The MIC is 8 mg/L (≈ 6.58 µM) in [13]; 4 mg/L (≈ 3.29 µM) in test [14]; 2 mg/L (≈ 1.65 µM) in test [15]; 4 mg/L (≈ 3.29 µM) in test [16]; 2 mg/L (≈ 1.65 µM) in test [17].
Turning to `CC[C@H](C)CCCCC(=O)N[C@@H](CCN)C(=O)N[C@H](C(=O)N[C@@H](CCN)C(=O)N[C@H]1CCNC(=O)[C@H](CCSC)NC(=O)[C@H](CCN)NC(=O)[C@H](CCN)NC(=O)[C@H](CC(C)C)NC(=O)[C@@H](Cc2ccccc2)NC(=O)[C@H](CCN)NC1=O)[C@@H](C)O`, the MIC amounted to 2 mg/L (≈ 1.62 µM) in [1]; 2 mg/L (≈ 1.62 µM) in test [2]; 2 mg/L (≈ 1.62 µM) in test [3]; 4 mg/L (≈ 3.24 µM) in test [4]; 4 mg/L (≈ 3.24 µM) in test [5]; 2 mg/L (≈ 1.62 µM) in test [6]. Also, the MIC in test [7] is 1 mg/L (≈ 0.811 µM); in test [8], 8 mg/L (≈ 6.49 µM); in [9], 4 mg/L (≈ 3.24 µM); in [10], 2 mg/L (≈ 1.62 µM); in test [11], 16 mg/L (≈ 13 µM); in test [12], 1 mg/L (≈ 0.811 µM). In addition, the MIC in test [13] is 4 mg/L (≈ 3.24 µM); in [14], 1 mg/L (≈ 0.811 µM); in test [15] it was 2 mg/L (≈ 1.62 µM); in [16] it was 4 mg/L (≈ 3.24 µM); in [17], 1 mg/L (≈ 0.811 µM).

Values taken from ChEMBL document CHEMBL5316337, “Critical Role of Position 10 Residue in the Polymyxin Antimicrobial Activity” (J Med Chem, 2023).
